From patent US5004746A, “Anti-retroviral castanospermine esters” (Merrell Dow Pharmaceuticals Inc., priority 1987, dated 1991)
≈ marks a conversion by molar mass, not a printed value. Read-outs that look alike come from different tables or passages of the source.

Experiments:
[1] = system: viral protein glycosylation; conditions: cited from earlier work
influenza infected cells = conditions: cited from earlier work
HIV glycoproteins = conditions: Blough et al. 1986; cited from earlier work
HIV = conditions: Blough et al. 1986; cited from earlier work
HIV-infected cells = conditions: Blough et al. 1986; cited from earlier work
[2] = system: Moloney murine leukemia virus (MoLV); assay: in vitro XC plaque assay (inhibition of growth and replication of murine leukemia virus); assay type: cell-based; conditions: SC1, MoLV on mouse SC-1 cells, rat XC cells, compound added 2 hours prior to virus, read-out: IC50 (inhibitory concentration)
Procedure: This assay was performed according to the method of Rowe et al. (Virology, 1970, 42, 1136-39) as previously described by L. Hsu, et al. (J. Viroloqical Methods, 1980, 1, 167-77) and T. L. Bowlin and M. R. Proffitt (J. Interferon Res., 1983, 3(1), 19-31). Mouse SC-1 cells (fibroblast) (10^5) were seeded into each well of 6-well cluster plates (Costar #3506) in 4 ml Minimum Essential Medium (MEM) with 10% Fetal Calf Serum (FCS). Following an 18 hour incubation period (37° C.), Moloney murine leukemia virus (MoLV) was applied at a predetermined titer to give optimal (i.e. countable) numbers of virus plaques. Compounds were added 2 hours prior to addition of the virus. Three days later the culture medium was removed, the SC-1 cell monolayers were exposed to UV irradiation (1800 ergs), and rat XC cells […] were seeded into each well in 4 ml MEM. Following an additional 3 day incubation (37° C.), these cells were fixed with ethyl alcohol (95%) and stained with 0.3% crystal violet. Plaques were then counted under low magnification.

Row | Structure (SMILES) | IC50 [2] | also measured
1 | OC[C@H]1OC(O)[C@@H](F)[C@@H](O)[C@@H]1O (stereo partly drawn) [2-deoxy-2-fluoro-D-mannose] | – | inhibition of viral protein glycosylation [1]: preventing the glycosylation of viral membrane protein; antiviral activity against influenza infected cells (influenza infected cells): exhibit antiviral activity against influenza infected cells
2 | OC[C@H]1OC(O)[C@H](F)[C@@H](O)[C@@H]1O (some centres unmarked) [2-deoxy-2-fluoroglucose] | – | inhibition of viral protein glycosylation [1]: inhibit viral protein glycosylation
3 | O=CC[C@@H](O)[C@H](O)[C@H](O)CO [2-deoxy-D-glucose] | – | inhibition of expression of HIV glycoproteins (HIV glycoproteins): inhibit expression of HIV glycoproteins; block of formation of syncytia (HIV): block the formation of syncytia; viral multiplication of HIV-infected cells (HIV-infected cells): stopped; inhibition of viral protein glycosylation ([1]; McDowell et al. 1985): inhibit viral protein glycosylation
4 | O=C(O[C@H]1CN2CC[C@H](O)[C@@H]2[C@@H](O)[C@@H]1O)c1ccco1 [R = 2-Furanoyl, R1 = H, R2 = H, 6-(2-Furancarboxylate)] | 1 mg/L (≈ 3.53 µM) | –
5 | CC(=O)O[C@H]1CN2CC[C@H](O)[C@@H]2[C@@H](O)[C@@H]1O [R = Ac, R1 = H, R2 = H, [1S-(1α,6β,7α,8β,8aβ)]-octahydro-1,6,7,8-indolizinetetrol 6-acetate] | 10 mg/L (≈ 43.2 µM) | –
6 | CCCC(=O)O[C@H]1[C@H](O)[C@@H](OC(=O)CCC)CN2CC[C@H](O)[C@H]12 [R = Butanoyl, R1 = H, R2 = Butanoyl, [1S-(1α,6β,7α,8β,8aβ)]-octahydro-1,6,7,8-indolizinetetrol 6,8-dibutanoate] | 0.5 mg/L (≈ 1.52 µM) | –
7 | CCCC(=O)O[C@H]1CN2CC[C@H](O)[C@@H]2[C@@H](O)[C@@H]1O [R = Butanoyl, R1 = H, R2 = H, [1S(1α,6β,7α,8β,8aβ)]-octahydro-1,6,7,8indolizinetrol 6-butanoate] | 0.1 mg/L (≈ 0.386 µM) | –
8 | O=C(O[C@H]1[C@H](O)[C@H]2[C@@H](O)CCN2C[C@@H]1OC(=O)c1ccccc1)c1ccccc1 [R = Bz, R1 = Bz, R2 = H, [1S-(1α,6β,7α,8β,8aβ)]-octahydro-1,6,7,8-indolizinetetrol 6,7-dibenzoate] | 10 mg/L (≈ 25.2 µM) | –
9 | O=C(O[C@H]1CN2CC[C@H](O)[C@@H]2[C@@H](O)[C@@H]1O)c1ccccc1 [R = Bz, R1 = H, R2 = H, [1S-(1α,6β,7α,8β,8aβ)]octahydro-1,6,7,8-indolizinetetrol 6-benzoate] | 0.1 mg/L (≈ 0.341 µM) | –
10 | O=C(O[C@H]1[C@H](O)[C@H]2[C@@H](O)CCN2C[C@@H]1O)c1ccc(Cl)cc1Cl [R = H, R1 = 2,4-Cl2 -Bz, R2 = H, [1S-(1α,6β,7α,8β,8aβ)]-octahydro-1,6,7,8-indolizinetetrol 7-(2,4-dichlorobenzoate)] | 1 mg/L (≈ 2.76 µM) | –
11 | O=C(O[C@H]1[C@H](O)[C@H]2[C@@H](O)CCN2C[C@@H]1O)c1ccccc1 [R = H, R1 = Bz, R2 = H, [1S-(1α,6β,7α,8β,8aβ)]-octahydro 1,6,7,8-indolizinetetrol 7-benzoate] | 1 mg/L (≈ 3.41 µM) | –
12 | Cc1ccc(C(=O)O[C@H]2[C@H](O)[C@H]3[C@@H](O)CCN3C[C@@H]2O)cc1 [R = H, R1 = p-CH3 Bz, R2 = H, [1S-(1α,6β,7α,8β,8aβ)]-octahydro-1,6,7,8-indolizinetetrol 7-(4-methylbenzoate)] | 1 mg/L (≈ 3.25 µM) | –
13 | Cc1ccc(C(=O)O[C@H]2CN3CC[C@H](O)[C@@H]3[C@@H](O)[C@@H]2O)cc1 [R = p-CH3 -Bz, R1 = H, R2 = H, [1S-(1α,6β,7α,8β,8aβ)]-octahydro-1,6,7,8-indolizinetetrol 6-(4-methylbenzoate)] | 1 mg/L (≈ 3.25 µM) | –
14 | COc1ccc(C(=O)O[C@H]2CN3CC[C@H](O)[C@@H]3[C@@H](O)[C@@H]2O)cc1 [R = p-CH3 O-Bz, R1 = H, R2 = H, [1S-(1α,6β,7α,8β,8aβ)]-octahydro-1,6,7,8-indolizinetetrol 6-(4-methoxybenzoate)] | 10 mg/L (≈ 30.9 µM) | –
15 | O=C(O[C@H]1CN2CC[C@H](O)[C@@H]2[C@@H](O)[C@@H]1O)c1ccc(F)cc1 [R = p-F-Bz, R1 = H, R2 = H, [1S-(1α,6β,7α,8β,8aβ)]-octahydro-1,6,7,8-indolizinetetrol 6-(4-fluorobenzoate)] | 10 mg/L (≈ 32.1 µM) | –
16 | O=C(O[C@H]1[C@H](O)[C@H]2[C@@H](O)CCN2C[C@@H]1OC(=O)c1ccc(F)cc1)c1ccc(F)cc1 [R = p-F-Bz, R1 = p-F-Bz, R2 = H, [1S-(1α,6β,7α,8β,8aβ)]-octahydro-1,6,7,8-indolizinetetrol 6,7-bis(4-fluorobenzoate)] | 10 mg/L (≈ 23.1 µM) | –
17 | CCC(O)[C@H](N)C(=O)O (stereo partly drawn) [β-hydroxy-norvaline] | – | inhibition of expression of HIV glycoproteins (HIV glycoproteins): inhibit expression of HIV glycoproteins; block of formation of syncytia (HIV): block the formation of syncytia; viral multiplication of HIV-infected cells (HIV-infected cells): stopped
